Reference: patent publication US6649609B2, “Benzimidazole derivatives and pharmaceutical compositions comprising these compounds” (Neurosearch A/S, priority 1999, dated 2003)
Structures can show the parent of a compound that is named as a salt.

Legend:
[1] = biological target: benzodiazepine receptor (GABAA receptor complex), cerebral cortex membranes; assay: In vitro inhibition of 3H-flunitrazepam (3H-FNM) binding; conditions: inhibition of specific 3H-FNM (1 nM) binding, rat cerebral cortex membranes
Experimental: The GABA recognition site and the benzodiazepine modulatory unit can selectively be labelled with ^3H-muscimol and ^3H-flunitrazepam, respectively.
13A: In vitro inhibition of ^3H-flunitrazepam (^3H-FNM) binding
Preparations are performed at 0-4° C. unless otherwise indicated. Cerebral cortex from male Wistar rats (150-200 g) is homogenised for 5-10 sec in 20 ml Tris-HCl (30 mM, pH 7.4) using an Ultra-Turrax homogeniser. The suspension is centrifuged at 27,000× g for 15 min and the pellet is washed three times with buffer (centrifuged at 27,000× g for 10 min). The washed pellet is homogenized in 20 ml of buffer and incubated on a water bath (37° C.) for 30 min to remove endogenous GABA and then centrifuged for 10 min at 27,000× g. The pellet is then homogenized in buffer and centrifuged for 10 min at 27,000× g. The final pellet is resuspended in 30 ml buffer and the preparation is frozen and stored at −20° C.
The membrane preparation is thawed and centrifuged at 2° C. for 10 min at 27,000× g. The pellet is washed twice with 20 ml 50 mM Tris-citrate, pH 7.1 using an Ultra-Turrax homogeniser and centrifuged for 10 min at 27,000× g. The final pellet is resuspended in 50 mM Tris-citrate, pH 7.1 (500 ml buffer per g of original tissue), and then used for binding assays. Aliquots of 0.5 ml tissue are added to 25 μl of test solution and 25 μl of ^3H-FNM (1 nM, final concentration), mixed and incubated for 40 min at 2° C., Non-specific binding is determined using Clonazepam (1 μM, final concentration). After incubation the samples are added 5 ml of ice-cold buffer and poured directly onto Whatman GFIC glass fibre filters under suction and immediately washed with 5 ml ice-cold buffer. The amount of radioactivity on the filters is determined by conventional liquid scintillation counting. Specific binding is total binding minus non-specific binding.
The test value will be given as IC50 (the concentration (μM) of the test substance which inhibits the specific binding of ^3H-FNM by 50%). [formula]
Co is specific binding in control assays, and
Cx is the specific binding in the test assay.
(The calculations assume normal mass-action kinetics).

[2] = tested on: GABAA receptor-ion channel complex (forebrain); assay: In vivo inhibition of 3H-FNM binding; design: species or system mouse; conditions: female NMRI mice, test substance i.v., inhibition of specific [3H]FNM binding in forebrain
Experimental: 13B: In vivo inhibition of ^3H-FNM binding
[^3H]FNM can also be used for in vivo receptor labelling studies in mouse. Accumulation of [^3H]FNM binding will occur all over the brain as GABAA receptors are widely distributed.
All test substances used are solutions prepared in 10% TWEEN 80. Groups of three female NMRI mice (25 g) are injected i.v. via the tail vein with 5.0 μCi of [3H]FNM in 0.2 ml saline. Fifteen min after injection with [^3H]FNM the test substance is administered i.v. Twenty min after injection with [^3H]FNM, mice are killed by decapitation, the forebrains rapidly excised and homogenized in 12 ml of ice-cold 50 mM Tris-citrate, pH 7.1 using an Ultra-Turrax homogenizer. Three aliquots of 1 ml are immediately filtered through GF/C glass fibre filters and washed with 2×5 ml of ice-cold buffer. The amounts of radioactivity on the filters and in 200 μl of the homogenate are determined by conventional scintillation counting. Groups of untreated mice serves as controls. To determine non-specific binding groups of mice are injected with Clonazepam (25 mg/kg) i.p. 10 min before [3H]FNM injection. Specific binding is the amount of binding in controls minus the amount of binding in Clonazepam treated mice.
The ED50 value is determined from dose response curves. […] [formula]
where Co is specific binding in controls and Cx is the specific binding in mice treated with test substance.

[3] = tested on: clonic convulsions induced by pentylenetetrazol (PTZ); assay: PTZ clonic convulsions; assay type: in vivo; conditions: female NMRI mice; for ED100: i.v., dose increasing the PTZ threshold to 100 mg PTZ/kg (linear regression); for ptz threshold at 30 mg/kg: test substance 30 mg/kg i.v., PTZ infused after 5 min, vehicle threshold 37-39 mg PTZ/kg
Experimental: The purpose of this test is to show antagonism of clonic convulsions induced by pentylenetetrazol (PTZ). PTZ induces clonic convulsions in mice after i.v. infusion. Antagonism of PTZ-induced convulsions is a measure for the agonistic character of ligands for the benzodiazepine recognition site.
Female NMRI mice (Bomholdtgaard, Ry), 20 g, 6 mice in each group are administered i.v. with vehicle or test substance. After five minutes the PTZ-solution is infused intravenously at a speed of 0.7 ml/minute through a cannula placed in the tail vein. The time from initiation of the infusion to appearance of clonic convulsions is recorded.
The dose of PTZ required for inducing convulsion in each mouse is calculated as PTZ/kg body weight. Means ±sd for each experimental group of 6 mice is calculated. ED100 is calculated by linear regression expressing the dose increasing the PTZ threshold to 100 mg PTZ/kg.
The threshold of vehicle treated controls is in the range of 37-39 mg PTZ/kg. As a control in each series of experiments PTZ is infused into 6 vehicle treated mice.

Row | SMILES | melting point | also measured
1 | COCCOC(=O)c1ccc2c(c1)ncn2-c1cccc(N2CCN(CC#N)CC2)c1 | 91 to 93 °C | 
2 | CCOC(=O)N1CCN(c2cccc(-n3cnc4cc(-c5ccoc5)ccc43)c2)CC1 [Compound 7i, 5-(3-Furanyl)-1-(3-(1-ethoxycarbonyl-4-piperazinyl)-phenyl)-benzimidazole] | 131 to 132 °C | IC50 [1]: 0.8 nM; In vivo binding ED50 [2]: 1.8 mg/kg; ED100 [3]: 2.5 mg/kg; ptz threshold at 30 mg/kg [3]: 140 mg/kg
3 | CCN(CC)C(=O)CN1CCN(c2cccc(-n3cnc4cc(C(=O)OCCOC)ccc43)c2)CC1 (as salt: HCl) | 202 to 204 °C | 
4 | COCCOC(=O)c1ccc2c(c1)ncn2-c1cccc(N2CCN(CCOCc3ccccc3)CC2)c1 (as salt: HCl) | 139 to 141 °C | 
5 | CN1CCCC1COC(=O)c1cccc(-n2cnc3cc(-c4ccoc4)ccc32)c1 (centres unmarked) (as salt: HCl) | 198 to 200 °C | 
6 | CCOC(=O)CN1CCN(Cc2cccc(-n3cnc4cc(-c5ccoc5)ccc43)c2)CC1 [Compound 7f, 5-(3-Furanyl)-1-(3-(1-ethoxycarbonylmethyl-4-piperazinylmethyl)-phenyl)-benzimidazole] |  | IC50 [1]: 0.6 nM; In vivo binding ED50 [2]: 0.17 mg/kg; ED100 [3]: 2.7 mg/kg; ptz threshold at 30 mg/kg [3]: 120 mg/kg
7 | O=C(OCCO)c1ccc2c(c1)ncn2-c1cccc(N2CCN(CCO)CC2)c1 (as salt: HCl) | 182 to 192 °C | 
8 | COC(=O)c1ccc2c(c1)ncn2-c1cccc(Cn2ccnc2)c1 [Compound 1l, Methyl 1-(3-(1-imidazolylmethyl)-phenyl)-benzimidazole-5-carboxylate] |  | IC50 [1]: 12 nM; In vivo binding ED50 [2]: 0.75 mg/kg; ED100 [3]: 17 mg/kg; ptz threshold at 30 mg/kg [3]: 120 mg/kg
9 | COCCOC(=O)c1ccc2c(c1)ncn2-c1cccc(N2CCN(Cc3ccc(Cl)s3)CC2)c1 (as salt: HCl) | 185 to 186 °C | 
10 | COC(=O)c1ccc2c(c1)ncn2-c1cccc(N2CCN(Cc3ccccc3)CC2)c1 (as salt: HCl) | 153 to 163 °C | 
11 | CC(C)(C)OC(=O)CN1CCN(c2cccc(-n3cnc4cc(-c5ccoc5)ccc43)c2)CC1 | 131 to 132 °C | 
12 | COCCOC(=O)c1ccc2c(c1)ncn2-c1cccc(-n2cnc(C(=O)OC)c2)c1 (as salt: HCl) | 132 to 134 °C | 
13 | CSCCOC(=O)c1ccc2c(c1)ncn2-c1cccc(N2CCN(C)CC2)c1 | 121 to 122 °C | 
14 | COCCOC(=O)c1ccc2c(c1)ncn2-c1cccc(N2CCNCC2)c1 (as salt: HCl) | 191 to 205 °C | 
15 | CCN1CC=C(c2cccc(-n3cnc4cc(C(=O)OCCOC)ccc43)c2)CC1 (as salt: HCl) | 179 to 180 °C | 
16 | NC(=O)CN1CCN(c2cccc(-n3cnc4cc(C(=O)OCCO)ccc43)c2)CC1 (as salt: HCl) | 268 to 270 °C | 
17 | COCCOC(=O)c1ccc2c(c1)ncn2-c1cccc(N2CCN(Cc3nnnn3C)CC2)c1 (as salt: HCl) | 196 to 198 °C | 
18 | CCN(CC)C(=O)CN1CCN(c2cccc(-n3cnc4cc(C(=O)OCCO)ccc43)c2)CC1 (as salt: HCl) | 149 to 154 °C | 
19 | COCCOC(=O)c1ccc2c(c1)ncn2-c1cccc(N2CCN(CC(=O)O)CC2)c1 | 105 to 110 °C | 
20 | COC(=O)c1ccc2c(c1)ncn2-c1cccc(N2CCNCC2)c1 (as salt: HCl) | 179 to 202 °C | 

Row | SMILES | melting point | also measured
21 | COCCOC(=O)c1ccc2c(c1)ncn2-c1cccc(N2CCN(CC(=O)OC(C)(C)C)CC2)c1 (as salt: HCl) | 218 to 224 °C | 
22 | CCOC(=O)CN1C(C)CN(c2cccc(-n3cnc4cc(C(=O)OCCOC)ccc43)c2)CC1C (centres unmarked) (as salt: HCl) | 90 to 94 °C | 
23 | CC(=O)N1CCN(CCOC(=O)c2cccc(-n3cnc4cc(-c5ccoc5)ccc43)c2)CC1 (as salt: HCl) [Compound 7j, 2-(1-Acetyl-4-piperazinyl)-ethyl 3-(5-(3-furanyl)-1-benzimidazolyl)-benzoate] | 167 to 168 °C | 
24 | CCN1C(C)CN(c2cccc(-n3cnc4cc(C(=O)OCCOC)ccc43)c2)CC1C (centres unmarked) (as salt: HCl) | 202 to 208 °C | 
25 | COCCOC(=O)c1ccc2c(c1)ncn2-c1cccc(C2CCN(C(C)=O)CC2)c1 (as salt: HCl) | 139 to 140 °C | 
26 | COCCOC(=O)c1ccc2c(c1)ncn2-c1cccc(N2CCN(CC(N)=O)CC2)c1 (as salt: HCl) | 211 to 212 °C | 
27 | CCOC(=O)CN1CCN(c2cccc(-n3cnc4cc(C(=O)OCCO)ccc43)c2)CC1 (as salt: HCl) | 103 to 125 °C | 
28 | COCCOC(=O)c1ccc2c(c1)ncn2-c1cccc(N2CCN(CC(=O)OC)CC2)c1 (as salt: HCl) | 161 to 164 °C | 
29 | COC(=O)c1ccc2c(c1)ncn2-c1cccc(N2CCN(CC#N)CC2)c1 | 160 to 162 °C | 
30 | COCCOC(=O)c1ccc2c(c1)ncn2-c1cccc(C2CCN(C)CC2)c1 (as salt: HCl) | 123 to 125 °C | 
31 | CN1CCN(c2cccc(-n3cnc4cc(C(=O)OCCO)ccc43)c2)CC1 (as salt: HCl) | 128 to 139 °C | 
32 | COCCOC(=O)c1ccc2c(c1)ncn2-c1cccc(N2CCN(CC(=O)OC(C)C)CC2)c1 (as salt: HCl) | 155 to 159 °C | 
33 | CCOC(=O)CN1CCN(c2cccc(-n3cnc4cc(C(=O)OCCOC)ccc43)c2)CC1 (as salt: HCl) [Compound 1b, 2-Methoxyethyl 1-(3-(4-(ethoxy-carbonyl-methyl)-1-piperazinyl)-phenyl)-benzimidazole-5-carboxylate] | 161 to 163 °C | 
34 | COCCOC(=O)c1ccc2c(c1)ncn2-c1cccc(N2CCN(C)CC2)c1 (as salt: maleate) | 136 to 137 °C | 
35 | CCN1CCN(c2cccc(-n3cnc4cc(C(=O)OCCOC)ccc43)c2)CC1 (as salt: HCl) | 166 to 168 °C | 
36 | COC(=O)CN1CCN(c2cccc(-n3cnc4cc(C(=O)OCCO)ccc43)c2)CC1 (as salt: HCl) | 150 to 155 °C | 
37 | COC(=O)c1ccc2c(c1)ncn2-c1cccc(N2CCN(CC(=O)O)CC2)c1 (as salt: HCl) | 210 to 220 °C | 
38 | CN(C)CCOC(=O)c1ccc2c(c1)ncn2-c1cccc(N2CCN(CC(=O)O)CC2)c1 | 47 °C (dec.) | 
39 | CCOC(=O)N1CCN(Cc2cccc(-n3cnc4cc(-c5ccoc5)ccc43)c2)CC1 (as salt: HCl) | 248 to 250 °C | 
40 | COCCOC(=O)c1ccc2c(c1)ncn2-c1cccc(N2CCN(Cc3ccccc3)CC2)c1 (as salt: HCl) | 172 to 177 °C | 
